The target of data set [1] is T1, monoamine oxidase (MAO) (Rattus norvegicus, UniProt P19643).
T1 construct: from tissue; host or cells: rat brain and liver homogenates
T1 sequence (P19643 1-520): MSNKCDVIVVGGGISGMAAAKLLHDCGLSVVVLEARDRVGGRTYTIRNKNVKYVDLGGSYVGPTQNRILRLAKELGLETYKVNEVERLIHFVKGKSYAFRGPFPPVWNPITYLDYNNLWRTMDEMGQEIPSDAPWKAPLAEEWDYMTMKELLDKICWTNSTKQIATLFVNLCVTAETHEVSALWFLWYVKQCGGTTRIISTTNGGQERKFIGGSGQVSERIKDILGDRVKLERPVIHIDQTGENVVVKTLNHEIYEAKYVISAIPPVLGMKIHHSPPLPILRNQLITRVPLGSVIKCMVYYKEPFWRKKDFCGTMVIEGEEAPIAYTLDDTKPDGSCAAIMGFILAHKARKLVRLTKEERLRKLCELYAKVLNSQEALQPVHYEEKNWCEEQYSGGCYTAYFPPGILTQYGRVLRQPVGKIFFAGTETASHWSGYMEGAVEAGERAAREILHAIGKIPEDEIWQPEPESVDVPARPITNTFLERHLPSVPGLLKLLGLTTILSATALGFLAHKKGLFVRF
Briefly: MAO inhibiting activity in homogenates of brain and liver of rats after oral administration (phenethylamine as substrate). The following applies: 2 h, p.o. in rats, killed two hours after administration, homogenates of the brain and the liver, phenethylamine 2.10^-5 mol.1^-1 as substrate. In kind it is in vivo. The protocol: The MAO inhibiting activity of the compounds of formula I and their pharmaceutically acceptable addition salts can be determined using standard methods. Thus, the substances to be tested were administered orally to rats. Two hours thereafter the animals were killed and the MAO inhibiting activity was measured in homogenates of the brain and the liver according to the method described in Biochem. Pharmacol. 12 (1963) 1439-1441, but using phenethylamine (2.10^-5 mol. 1^-1) in place of tyramine as the substrate.

Data set [2] can be described thus: toxicity (LD50, p.o. in mice). The following applies: mouse, in vivo, po.

Bounds are passed on as bounds.

Broadly, the ED50 is the midpoint of the dose-response relation. In general, LD50 refers to the dose at which mortality reaches 50%. On to `NCCNC(=O)c1ccc(Cl)cc1Cl` [N-(2-Aminoethyl)-2,4-dichlorobenzamide, N-(2-aminoethyl)-2,4-dichlorobenzamide], for which, in data set [1], the 50% effect level (ED50) was put at a dose of 1.5 µmol/kg. In data set [2], this compound registered an LD50 of 625 to 1250 mg/kg.

In data set [1], `NCCNC(=O)c1ccc(Cl)c(Cl)c1` [N-(2-Aminoethyl)-3,4-dichlorobenzamide, N-(2-aminoethyl)-3,4-dichlorobenzamide] displayed an ED50 of 10.3 µmol/kg. The LD50 in data set [2] is 1000 to 2000 mg/kg. The matching figures for `NCCNC(=O)c1ccc(Br)cc1` [N-(2-Aminoethyl)-p-bromobenzamide]: 4 µmol/kg and 500 to 1000 mg/kg. In turn, `NCCNC(=O)c1ccc(Cl)cc1` [N-(2-Aminoethyl)-p-chlorobenzamide] registered an LD50 in data set [2] of 1000 to 2000 mg/kg. In turn, `NCCNC(=O)c1ccc(F)cc1` [N-(2-Aminoethyl)-p-fluorobenzamide] displayed an ED50 in data set [1] of 4 µmol/kg. In data set [2], this compound showed an LD50 greater than 5000 mg/kg. In data set [1], `NCCNC(=O)c1ccccc1` [N-(2-Aminoethyl)benzamide] registered an ED50 of 20 µmol/kg. In data set [2], this compound yielded an LD50 greater than 5000 mg/kg.
